Assay: Viscosity, Haake Rheostress RS 600 rheometer, flat plate geometry
Assay type: physicochemical
Settings: for Viscosity: 1.5 mol/kg aqueous Mg-salt solution, 25° C.
Description: The viscosity is measured using a Haake Rheometer, type Haake Rheostress RS 600, with a flat plate geometry at a temperature of 25° C. unless otherwise indicated. The viscosity is measured at shear rates (i) of between in the range of between 10 s^−1 and 1000 s^−1, unless otherwise indicated.

Viscosity [mPas] | viscosity relative to the jettable range (jettable range typically between 2 and 8 mPas, 1.5 mol/kg solution) | SMILES
10.3 | outside the jettable range | CC(=O)CCC(=O)[O-].CC(=O)CCC(=O)[O-].[Mg+2] [compound 14, Mg-levulinate]
3.2 |  | O=S(=O)([O-])[O-].[Mg+2] [compound 1, Mg-sulfate, reference compound]
5.0 |  | O=C([O-])CCC(=O)[O-].[Mg+2] [compound 10, Mg-succinate]
8.8 |  | O=C([O-])CCCCC(=O)[O-].[Mg+2] [compound 15, Mg-adipate]

SMILES | Viscosity [mPas] | viscosity relative to the jettable range (jettable range typically between 2 and 8 mPas, 1.5 mol/kg solution)
C=C(CC(=O)[O-])C(=O)[O-].[Mg+2] [compound 8, Mg-itaconate] | 5.5 | 
O=[N+]([O-])[O-].O=[N+]([O-])[O-].[Mg+2] [compound 2, Mg-nitrate, reference compound] | 4.6 | 

Reference: patent US20250122397A1, “FOOD SAFE AQUEOUS INKJET COMPOSITIONS” (Canon Production Printing Holding B.V., priority 2023, published 2025)
